Source: US20100056631A1, “ANTIALLERGENIC COMPOSITION” (OPHTECS CORPORATION, priority 2006, published 2010)

Experiments:
[1] = test system: rat suffering from experimental allergenic conjunctivitis; experiment: Evaluation test of itching suppression effect in rat model of chronically allergic conjunctivitis; assay type: in vivo; settings: 5 μl eye drops to both eyes 5 min before local sensitizing reagent (egg albumin), scratching observed 20 min, repeated 8 days, total for 8 days vs test formulation No. 1 (FIG. 1, 2; significant level of 5%)
Description: 0.6 ml of a primary sensitizing reagent (a solution prepared by dissolving 20 mg of egg albumin, 40 mg of aluminum hydroxide gel and 2×10^11 units of an inactivated pertussis antigen in physiological saline) was administered to the footpads of both hands and both feet of a rat by using a 24G injection needle. Five days after the administration of the primary sensitizing reagent, 1 ml of a secondary sensitizing reagent (a solution prepared by dissolving 50 mg of egg albumin in 100 ml of physiological saline) was injected hypodermically into the back portion of the rat by using a 27G injection needle. From 14-th to 42-th days after the administration of the primary sensitizing reagent, 5 μl of drops of a local sensitizing reagent (a solution prepared by dissolving 500 mg of egg albumin in 50 ml of physiological saline) was administered to the both eyes of the rat, and the rat was put in an observation cage to observe the “scratching” of the rat for 20 minutes right after the administration of the ophthalmic solution. The rat which took this action 10 times or more within 20 minutes was used as a “rat suffering from experimental allergenic conjunctivitis” in the experiment. […]

[2] = test system: rat administered with an ophthalmic solution of histamine; experiment: Effect of suppressing histamine-induced pruritus; assay type: in vivo; settings: 5 μl eye drops to both eyes 5 min before histamine 10 μmol/5 μl; scratching observed 20 min (FIG. 4)
Description: In experiments on the evaluation of the effect of suppressing histamine-induced pruritus, test formulation No. 1 (0% of sodium D-3-hydroxybutyrate, referred to as PBS in FIG. 4) and test formulation No. 4 (1.0% of sodium D-3-hydroxybutyrate, referred to as 1% HBA in FIG. 4) shown in Table 1 and Intal (2% of sodium cromoglycate) and Livostin (0.025% of levocabastine hydrochloride) as Comparative formulation were used.
5 μl of an ophthalmic solution of the test formulation or Comparative formulation was administered to the both eyes of each rat each time. Five minutes after this, 10 μmol/5 μl of an ophthalmic solution of histamine was administered to one eye each time to induce pruritus in the rat. […] Meanwhile, Intal which is a chemical mediator isolation inhibitor was not effective (FIG. 4).

## C[C@@H](O)CC(=O)[O-].[Na+] [Sodium D-3-hydroxybutyrate]
[1]
  number of times of scratching (itching suppression effect): suppressed the scratching of the rat suffering from an experimental allergy, dependent upon its volume
[1]; listed as sodium D-3-hydroxybutyrate
  number of times of scratching (itching suppression effect): excellent pruritus suppression effect
[2]
  scratching after histamine ophthalmic solution (effect of suppressing itching): excellent pruritus suppression effect
